Measured values reported in publication PMC2801808 (Journal of medicinal chemistry, 2009).

How the values were obtained:
[1] = no reference given; cited from earlier work
calpain = conditions: cited from earlier work
purified calpain 1 = target: T1, purified calpain 1 (Homo sapiens, UniProt P07384); experiment: Calpain 1 activity, sLLVY-AMC hydrolysis with purified calpain 1; format: biochemical
T1 sequence (P07384 1-714): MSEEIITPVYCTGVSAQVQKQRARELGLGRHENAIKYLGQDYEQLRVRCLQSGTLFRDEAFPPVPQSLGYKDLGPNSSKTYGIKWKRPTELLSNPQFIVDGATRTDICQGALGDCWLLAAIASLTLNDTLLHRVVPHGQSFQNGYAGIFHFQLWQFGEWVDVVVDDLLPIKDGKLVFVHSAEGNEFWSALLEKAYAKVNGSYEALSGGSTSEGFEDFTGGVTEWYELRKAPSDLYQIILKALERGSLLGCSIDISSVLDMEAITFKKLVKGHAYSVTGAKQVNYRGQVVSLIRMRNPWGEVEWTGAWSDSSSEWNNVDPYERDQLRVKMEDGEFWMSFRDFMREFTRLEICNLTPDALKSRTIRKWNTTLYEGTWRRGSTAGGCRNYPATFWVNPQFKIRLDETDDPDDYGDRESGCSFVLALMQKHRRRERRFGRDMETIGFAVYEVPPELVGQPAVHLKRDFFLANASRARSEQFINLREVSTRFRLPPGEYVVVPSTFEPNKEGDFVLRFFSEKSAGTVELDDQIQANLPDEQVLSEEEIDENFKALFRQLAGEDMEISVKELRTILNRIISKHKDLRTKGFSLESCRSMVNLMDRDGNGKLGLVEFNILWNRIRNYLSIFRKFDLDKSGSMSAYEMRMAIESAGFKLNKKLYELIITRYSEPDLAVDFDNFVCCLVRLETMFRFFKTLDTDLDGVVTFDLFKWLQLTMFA
T1 sequence (P04632 1-268 partner): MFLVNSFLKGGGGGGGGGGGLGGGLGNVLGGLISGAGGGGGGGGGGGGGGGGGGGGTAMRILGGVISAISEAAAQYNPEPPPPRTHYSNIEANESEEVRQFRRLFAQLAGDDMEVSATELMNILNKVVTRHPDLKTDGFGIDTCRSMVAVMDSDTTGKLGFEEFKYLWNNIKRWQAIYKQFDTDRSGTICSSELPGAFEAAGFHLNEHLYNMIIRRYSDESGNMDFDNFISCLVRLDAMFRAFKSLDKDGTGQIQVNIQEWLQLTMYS

NDUFV2 cleavage = experiment: Ca2+-induced cleavage of complex I subunit NDUFV2 in isolated mitochondria; set-up: species or system rabbit; conditions: 10 μM pretreatment, then Ca2+ 1 μM for 5 min
[2] = tested on: state 3 respiration of renal cortical mitochondria; experiment: Ca2+-induced attenuation of state 3 respiration in isolated mitochondria; set-up: species or system rabbit; conditions: 10 μM pretreatment, then Ca2+ 1 μM for 5 min
calpain 2 = target: T2, calpain 2 (Sus scrofa, UniProt A6YNL5); experiment: Calpain 2 inhibition; format: biochemical, porcine
T2 sequence (A6YNL5 1-700): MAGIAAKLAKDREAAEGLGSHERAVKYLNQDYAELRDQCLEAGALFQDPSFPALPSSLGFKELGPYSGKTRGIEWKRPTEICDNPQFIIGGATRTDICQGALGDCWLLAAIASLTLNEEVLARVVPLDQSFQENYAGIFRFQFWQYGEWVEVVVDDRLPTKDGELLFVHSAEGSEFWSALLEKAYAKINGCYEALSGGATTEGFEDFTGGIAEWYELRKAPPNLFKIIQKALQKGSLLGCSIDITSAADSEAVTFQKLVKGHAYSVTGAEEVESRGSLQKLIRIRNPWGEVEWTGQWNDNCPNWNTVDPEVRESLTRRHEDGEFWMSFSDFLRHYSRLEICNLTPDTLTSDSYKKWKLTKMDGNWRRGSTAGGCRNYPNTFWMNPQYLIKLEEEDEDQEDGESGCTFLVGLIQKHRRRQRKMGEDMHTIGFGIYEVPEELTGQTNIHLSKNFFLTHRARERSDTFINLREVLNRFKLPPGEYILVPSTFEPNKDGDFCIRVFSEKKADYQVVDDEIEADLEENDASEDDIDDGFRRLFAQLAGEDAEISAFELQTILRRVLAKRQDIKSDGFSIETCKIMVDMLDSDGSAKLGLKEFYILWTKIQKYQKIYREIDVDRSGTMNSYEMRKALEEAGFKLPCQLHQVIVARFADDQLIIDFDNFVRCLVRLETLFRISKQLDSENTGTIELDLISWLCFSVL
T2 sequence (P04574 1-266 partner): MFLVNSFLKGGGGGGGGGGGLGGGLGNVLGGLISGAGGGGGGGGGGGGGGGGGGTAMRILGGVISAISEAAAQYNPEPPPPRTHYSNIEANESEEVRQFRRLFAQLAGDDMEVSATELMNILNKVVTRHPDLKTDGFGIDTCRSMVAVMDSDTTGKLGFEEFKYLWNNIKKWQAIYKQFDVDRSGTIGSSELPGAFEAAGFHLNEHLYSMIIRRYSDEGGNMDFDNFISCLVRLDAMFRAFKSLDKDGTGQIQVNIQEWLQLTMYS

Structure (SMILES)	thiol pKa [1]	selectivity for calpain over cathepsin B (calpain)	also measured
COc1ccc(S)cc1 [methoxythiophenol]	6.8		
O=C(O)/C(S)=C/c1ccc(I)cc1 [PD150606]		600 fold	
O=C(O)/C(S)=C/c1c[nH]c2ccc(F)cc12 [PD151746]		600 fold	
CCS [ethanethiol]	10.61		
CCCC[C@@H](C=O)NC(=O)[C@H](CC(C)C)NC(=O)OCc1ccccc1 [Calpeptin, Z-Leu-Nle-CHO]			IC50 (purified calpain 1): ~40 nM; Ca2+-induced cleavage of complex I subunit NDUFV2 (NDUFV2 cleavage): blocked; Ca2+-induced attenuation of state 3 respiration [2]: blocked; IC50 (calpain 2): ~60 nM
